Results on 1 compound are retold here after ChEMBL document CHEMBL5346971, “Discovery of the First Irreversible HDAC6 Isoform Selective Inhibitor with Potent Anti-Multiple Myeloma Activity” (J Med Chem, 2023).

Activity calls are given as the source filed them. The calls are words filed in the database; no cut-off is given here.

The nature of series [1]: Cytotoxicity against human L02 cells assessed as inhibition of cell proliferation incubated for 48 hrs by CCK8 assay. The class given is toxicity, cell-based.
Series [2] relates to RPMI-8226. Nature of the series: Induction of apoptosis in human RPMI-8226 cells assessed as proportion of early apoptotic cells at 0.1 uM incubated for 24 hrs by AnnexinV-FITC/PI staining based flow cytometry (reference value: 10.63%). It is filed as functional, cell-based.
A short description of series [3]: Intrinsic clearance in rat liver microsomes in presence of NADPH by LC-MS/MS analysis. It is filed as ADME, Microsome. The conditions noted are these: read-out: CLH.
The nature of series [4]: Half-life in mouse liver microsomes in presence of NADPH by LC-MS/MS analysis. The class given is ADME, Microsome.
A short description of series [5]: Half-life in rat liver microsomes in presence of NADPH by LC-MS/MS analysis. The class given is ADME, Microsome.
Series [6] can be described thus: Effect on HDAC6 protein expression in human A549 cells assessed as change in HDAC6 protein expression at 0.4 uM incubated for 5 hrs followed by drug wash-out and measured following drug wash-out by western blot analysis relative to control. The class given is functional.
Series [7] concerns RPMI-8226. Nature of the series: Induction of apoptosis in human RPMI-8226 cells assessed as proportion of necrotic cells at 0.1 uM incubated for 24 hrs by AnnexinV-FITC/PI staining based flow cytometry (reference value: 0.49%). The class given is functional, cell-based.
Series [8] deals with RPMI-8226. Nature of the series: Induction of apoptosis in human RPMI-8226 cells assessed as proportion of late apoptotic cells at 0.1 uM incubated for 24 hrs by AnnexinV-FITC/PI staining based flow cytometry (reference value: 4.18%). The class given is functional, cell-based.
The target in series [9] is T1, Protein deacetylase HDAC6 (Homo sapiens) (UniProt Q9UBN7).
T1 sequence (whole entry): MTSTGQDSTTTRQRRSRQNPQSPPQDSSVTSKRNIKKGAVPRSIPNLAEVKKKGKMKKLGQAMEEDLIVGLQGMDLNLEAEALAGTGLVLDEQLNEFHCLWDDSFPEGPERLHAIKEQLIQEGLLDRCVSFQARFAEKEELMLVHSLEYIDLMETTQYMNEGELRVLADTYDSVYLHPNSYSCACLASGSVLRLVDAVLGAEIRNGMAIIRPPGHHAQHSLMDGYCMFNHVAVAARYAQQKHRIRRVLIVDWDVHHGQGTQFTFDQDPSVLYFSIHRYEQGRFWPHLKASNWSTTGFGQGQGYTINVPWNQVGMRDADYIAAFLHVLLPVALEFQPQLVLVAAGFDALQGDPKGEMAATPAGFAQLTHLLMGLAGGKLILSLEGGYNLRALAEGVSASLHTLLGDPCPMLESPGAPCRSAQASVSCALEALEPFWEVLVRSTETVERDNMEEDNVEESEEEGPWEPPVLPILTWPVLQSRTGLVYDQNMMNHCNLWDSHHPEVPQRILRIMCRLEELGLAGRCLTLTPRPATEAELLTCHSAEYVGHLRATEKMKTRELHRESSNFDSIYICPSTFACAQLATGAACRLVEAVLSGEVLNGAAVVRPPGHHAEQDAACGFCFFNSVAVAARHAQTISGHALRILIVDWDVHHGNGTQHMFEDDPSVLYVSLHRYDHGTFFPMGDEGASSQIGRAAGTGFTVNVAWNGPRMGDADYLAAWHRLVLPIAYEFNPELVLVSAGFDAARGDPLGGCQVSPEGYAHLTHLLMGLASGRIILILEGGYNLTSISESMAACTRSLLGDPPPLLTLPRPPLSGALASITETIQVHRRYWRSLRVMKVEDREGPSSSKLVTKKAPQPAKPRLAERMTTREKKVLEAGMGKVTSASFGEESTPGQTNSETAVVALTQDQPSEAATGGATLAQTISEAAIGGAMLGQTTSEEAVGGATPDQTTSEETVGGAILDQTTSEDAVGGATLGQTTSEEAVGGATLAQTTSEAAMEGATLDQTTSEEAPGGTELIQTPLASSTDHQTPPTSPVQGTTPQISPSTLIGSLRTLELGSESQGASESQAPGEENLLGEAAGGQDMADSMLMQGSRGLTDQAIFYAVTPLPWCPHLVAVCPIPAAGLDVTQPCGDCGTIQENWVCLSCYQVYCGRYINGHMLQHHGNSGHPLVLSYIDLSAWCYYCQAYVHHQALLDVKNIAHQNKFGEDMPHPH
The series is described as follows: Inhibition of HDAC6 in human A549 cells assessed as acetyl alpha-tubulin level at 2 uM incubated for 5 hrs by western blot analysis relative to control. The class given is cell-based.

Series [10] addresses T2, Class 1 histone deacetylase (Homo sapiens) (UniProt Q13547+O15379+Q92769+Q9BY41). Nature of the series: Irreversible inhibition of class 1 HDAC in human A549 cells assessed as acetyl histone H3 level at 0.4 uM incubated for 5 hrs followed by drug wash-out and measured immediately after drug wash-out by western blot analysis relative to control. The class given is cell-based.

Series [11] has as its target Histone deacetylase 1 (Homo sapiens, UniProt Q13547). The series is described as follows: Inhibition of C-terminal His/FLAG-tagged human full length recombinant HDAC1 (1 to 482 residues) expressed in Sf9 cells using Boc-Lys(acetyI)-AMC as substrate preincubated with enzyme for 1 hr followed by substrate addition and measured after 30 mins by fluorescence based analysis.

The test system of series [12] is RPMI-8226. The series is described as follows: Induction of apoptosis in human RPMI-8226 cells assessed as proportion of necrotic cells at 0.5 uM incubated for 24 hrs by AnnexinV-FITC/PI staining based flow cytometry (reference value: 0.49%). It is filed as functional, cell-based.
Series [13] relates to RPMI-8226. The series is described as follows: Induction of apoptosis in human RPMI-8226 cells assessed as proportion of viable cells at 0.1 uM incubated for 24 hrs by AnnexinV-FITC/PI staining based flow cytometry (reference value: 84.71%). The class given is functional, cell-based.
Series [14] is filed under the species Homo sapiens. The series is described as follows: Selectivity index, ratio of IC50 for inhibition of C-terminal FLAG-tagged human full length recombinant HDAC2 (1 to 488 residues) expressed in Sf9 cells to IC50 for inhibition of N-terminal GST-tagged human full length recombinant HDAC6 (1 to 1215 residues) expressed in Sf9 cells.
The target in series [15] is Histone deacetylase 2 (Homo sapiens, UniProt Q92769). Nature of the series: Inhibition of C-terminal FLAG-tagged human full length recombinant HDAC2 (1 to 488 residues) expressed in Sf9 cells using Boc-Lys(acetyI)-AMC as substrate preincubated with enzyme for 1 hr followed by substrate addition and measured after 30 mins by fluorescence based analysis.
Sequence of Histone deacetylase 2 (Q92769 whole entry, the tested form may be a part): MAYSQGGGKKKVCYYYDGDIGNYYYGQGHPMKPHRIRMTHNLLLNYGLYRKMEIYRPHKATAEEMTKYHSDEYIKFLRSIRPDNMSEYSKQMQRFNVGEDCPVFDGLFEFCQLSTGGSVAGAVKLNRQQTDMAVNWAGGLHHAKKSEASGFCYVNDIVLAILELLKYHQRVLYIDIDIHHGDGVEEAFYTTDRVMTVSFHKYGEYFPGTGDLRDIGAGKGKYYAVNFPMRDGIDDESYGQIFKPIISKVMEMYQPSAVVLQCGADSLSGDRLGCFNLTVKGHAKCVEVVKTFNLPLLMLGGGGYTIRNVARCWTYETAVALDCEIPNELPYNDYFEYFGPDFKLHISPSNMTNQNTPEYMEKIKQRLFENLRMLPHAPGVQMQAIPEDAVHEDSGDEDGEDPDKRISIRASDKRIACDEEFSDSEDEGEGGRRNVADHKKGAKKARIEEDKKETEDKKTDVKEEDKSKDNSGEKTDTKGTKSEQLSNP
In series [16] the target is T1, Protein deacetylase HDAC6 (Homo sapiens). The series is described as follows: Irreversible inhibition of HDAC6 in human A549 cells assessed as acetyl alpha-tubulin level at 0.4 uM incubated for 5 hrs followed by drug wash-out for 1 hr by western blot analysis relative to control. The class given is cell-based.
For series [17], the system named is RPMI-8226. Nature of the series: Induction of apoptosis in human RPMI-8226 cells assessed as proportion of late apoptotic cells at 0.5 uM incubated for 24 hrs by AnnexinV-FITC/PI staining based flow cytometry (reference value: 4.18%). It is filed as functional, cell-based.
In series [18] the target is T2, Class 1 histone deacetylase (Homo sapiens). The series is described as follows: Irreversible inhibition of class 1 HDAC in human A549 cells assessed as acetyl histone H3 level at 0.4 uM incubated for 5 hrs followed by drug wash-out for 6 hrs by western blot analysis relative to control. It is filed as cell-based.
The target of series [19] is T1, Protein deacetylase HDAC6 (Homo sapiens). Nature of the series: Irreversible inhibition of HDAC6 in human A549 cells assessed as acetyl alpha-tubulin level at 0.4 uM incubated for 5 hrs followed by drug wash-out for 24 hrs by western blot analysis relative to control. The class given is cell-based.

T2 sequence (O15379 whole entry, looked up): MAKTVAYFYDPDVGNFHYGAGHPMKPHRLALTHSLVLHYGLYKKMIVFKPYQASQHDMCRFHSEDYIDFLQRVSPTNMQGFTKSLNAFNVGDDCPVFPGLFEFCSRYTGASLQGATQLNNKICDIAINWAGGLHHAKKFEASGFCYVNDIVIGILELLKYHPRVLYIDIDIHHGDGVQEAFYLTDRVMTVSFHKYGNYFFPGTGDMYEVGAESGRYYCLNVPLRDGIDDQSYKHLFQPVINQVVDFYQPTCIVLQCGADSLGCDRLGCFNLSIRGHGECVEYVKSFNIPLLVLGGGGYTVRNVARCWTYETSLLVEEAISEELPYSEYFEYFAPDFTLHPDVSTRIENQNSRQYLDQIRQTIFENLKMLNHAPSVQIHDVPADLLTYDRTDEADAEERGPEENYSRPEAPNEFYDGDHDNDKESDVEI
T2 sequence (Q13547 whole entry, looked up): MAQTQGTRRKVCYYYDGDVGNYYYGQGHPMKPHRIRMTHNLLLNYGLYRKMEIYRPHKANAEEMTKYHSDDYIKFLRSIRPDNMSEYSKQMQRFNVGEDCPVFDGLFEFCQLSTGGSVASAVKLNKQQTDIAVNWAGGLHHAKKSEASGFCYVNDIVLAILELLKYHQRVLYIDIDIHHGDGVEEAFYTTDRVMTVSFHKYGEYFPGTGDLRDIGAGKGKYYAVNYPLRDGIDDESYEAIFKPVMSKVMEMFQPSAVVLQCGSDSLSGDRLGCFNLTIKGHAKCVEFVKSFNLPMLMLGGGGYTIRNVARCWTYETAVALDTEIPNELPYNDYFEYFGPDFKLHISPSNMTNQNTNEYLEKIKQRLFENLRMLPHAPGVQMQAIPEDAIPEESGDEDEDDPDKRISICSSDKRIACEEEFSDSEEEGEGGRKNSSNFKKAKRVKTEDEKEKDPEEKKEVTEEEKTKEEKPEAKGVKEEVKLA
T2 sequence (Q92769 whole entry, looked up): as the sequence (Q92769 whole entry, the tested form may be a part) above
T2 sequence (Q9BY41 whole entry, looked up): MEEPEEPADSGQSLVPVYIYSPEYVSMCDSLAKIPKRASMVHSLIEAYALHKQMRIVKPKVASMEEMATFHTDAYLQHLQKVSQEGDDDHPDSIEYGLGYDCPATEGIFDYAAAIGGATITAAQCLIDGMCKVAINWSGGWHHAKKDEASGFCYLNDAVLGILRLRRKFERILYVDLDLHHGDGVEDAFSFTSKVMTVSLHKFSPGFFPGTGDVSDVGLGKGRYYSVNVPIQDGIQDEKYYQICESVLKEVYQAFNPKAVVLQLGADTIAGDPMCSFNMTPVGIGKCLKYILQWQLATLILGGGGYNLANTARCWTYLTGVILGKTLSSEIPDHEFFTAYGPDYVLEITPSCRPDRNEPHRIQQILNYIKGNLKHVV
Sequence of Histone deacetylase 1 (Q13547 whole entry, the tested form may be a part): as the sequence (Q13547 whole entry, looked up) above

In the case of `O=C(NO)c1ccc(COc2no[n+]([O-])c2S(=O)(=O)c2ccccc2)cc1`, the IC50 at 48 h in series [1] stood at 8.2 µM. Moreover, the outcome in [2], in [7], in [8], in series [12], in [13] and in series [17] was Active. Also, in series [3], the CLint scaled worked out at 270 mL/min/kg. Besides, the half-life came out at 1.8 min in series [4] and 9.2 min in [5]. Moreover, the “fold change (FC)” value in series [6] was determined as 1; in series [9], 4.3; in series [10], 1; in series [16] it was 5.3; in series [18], 1.1; in series [19], 4.3. For the same compound, the half-inhibitory concentration (IC50) is 4.8 µM in [11] and 1.5 µM in series [15]. Further, the Ratio IC50 in series [14] is 45.5.
